Patent publication US7396856B2, “Benzopyran analogs and their use for the treatment of glaucoma” (Alcon, Inc., priority 2002, dated 2008)
Where a name gives a salt, the structure may show the parent alone. Read-outs that look alike come from different tables or passages of the source.

Assays:
5-HT2 receptor = target: T1, 5-HT2 receptor (Rattus norvegicus, UniProt P14842); experiment: 5-HT2 functional assay: [Ca2+]i mobilization (FLIPR) in A7r5 cells; format: cell-based; conditions: for Emax / Efficacy (Emax, %): percentage of maximum 5-HT-induced response; for Emax: read-out: Efficacy (Emax, %); for EC50: A7r5 rat vascular smooth muscle cells, FLIPR
T1 construct: endogenous in cells; host or cells: A7r5 rat vascular smooth muscle cells
T1 sequence (P14842 whole entry): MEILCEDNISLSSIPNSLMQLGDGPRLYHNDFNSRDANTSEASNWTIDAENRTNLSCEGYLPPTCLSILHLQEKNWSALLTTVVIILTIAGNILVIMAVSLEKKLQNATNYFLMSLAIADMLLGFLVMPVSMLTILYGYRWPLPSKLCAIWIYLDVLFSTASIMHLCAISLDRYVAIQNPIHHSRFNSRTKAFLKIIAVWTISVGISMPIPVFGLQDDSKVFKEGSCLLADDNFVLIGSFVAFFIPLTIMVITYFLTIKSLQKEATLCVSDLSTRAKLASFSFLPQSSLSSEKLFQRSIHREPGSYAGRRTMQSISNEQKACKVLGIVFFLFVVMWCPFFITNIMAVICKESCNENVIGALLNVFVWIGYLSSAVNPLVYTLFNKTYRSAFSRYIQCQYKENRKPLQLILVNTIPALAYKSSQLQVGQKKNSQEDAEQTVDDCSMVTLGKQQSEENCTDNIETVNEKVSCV
Method: 5-HT2 Functional Assay: [Ca^2+]i Mobilization
The receptor-mediated mobilization on intracellular calcium ([Ca^2+]i) was studied using the Fluorescence Imaging Plate Reader (FLIPR) instrument. Rat vascular smooth muscle cells, A7r5, were grown in a normal media of […] and 10 μg/mL gentamycin. Confluent cell monolayers were trypsinized, pelleted, and re-suspended in normal media. Cells were seeded in a 50 μL volume at a density of 20,000 cells/well in a black wall, 96-well tissue culture plate and grown for 2 days.
On the day of the experiment, one vial of FLIPR Calcium Assay Kit dye was re-suspended in 50 mL of a FLIPR buffer consisting of Hank's Balanced Salt Solution (HBSS), 20 mM HEPES, and 2.5 mM probenecid, pH 7.4. Cells were loaded with the calcium-sensitive dye by addition of an equal volume ([…]) to each well of the 96-well plate and incubated with dye for 1 h at 23° C.
Compounds were diluted 1:50 in […]. For “hit” screening, compounds were further diluted 1:10 in FLIPR buffer and tested at a final concentration of 10 μM.
The compound plate and cell plate were placed in the FLIPR instrument. At the beginning of an experimental run, a signal test was performed to check the basal fluorescence signal from the dye-loaded cells and the uniformity of the signal across the plate. The basal fluorescence was adjusted between 8000-12000 counts by modifying the exposure time, the camera F-stop, or the laser power. Instrument settings for a typical assay were the following: laser power 0.3-0.6 W, camera F-stop F/2, and exposure time 0.4 sec. An aliquot (25 μL) of the test compound was added to the existing 100 μL dye-loaded cells at a dispensing speed of 50 μL/sec. Fluorescence data were collected in real-time at 1.0 sec intervals for the first 60 secs and at 6.0 sec intervals for an additional 120 secs.

[1] = system: intraocular pressure (IOP); experiment: Acute IOP response in lasered (hypertensive) eyes of conscious cynomolgus monkeys; format: in vivo; conditions: lasered monkey eye
Method: Acute IOP Response in Lasered (Hypertensive) Eyes of Conscious Cynomolgus Monkeys
Intraocular pressure (IOP) can be determined with an Alcon Pneumatonometer after light corneal anesthesia with 0.1% proparacaine. Eyes are washed with saline after each measurement. After a baseline IOP measurement, test compound is instilled in one 30 μL aliquot to the right eyes only of nine cynomolgus monkeys. Vehicle is instilled in the right eyes of six additional animals. Subsequent IOP measurements are taken at 1, 3, and 6 hours.

brain 5-HT2 receptors = brain 5-HT2 receptors (Rattus norvegicus, UniProt P14842); experiment: 5-HT2 receptor binding assay ([125I]DOI competition); conditions: [125I]DOI displacement, rat or human cerebral cortex homogenates
Sequence of brain 5-HT2 receptors (P14842 whole entry): as above
Method: 5-HT2 Receptor Binding Assay
The assay mixture is incubated for 1 hour at 23° C. in polypropylene tubes and the assays terminated by rapid vacuum filtration over Whatman GF/B glass fiber filters previously soaked in 0.3% polyethyleneimine using ice-cold buffer. Test compounds (at different concentrations) are substituted for methiothepin. Filter-bound radioactivity is determined by scintillation spectrometry on a beta counter. The data are analyzed using a non-linear, iterative curve-fitting computer program [Trends Pharmacol. Sci., 16, 413 (1995)] to determine the compound affinity parameter. The concentration of the compound needed to inhibit the [^125I]DOI binding by 50% of the maximum is termed the IC50 or Ki value.

[2] = EC50, nM (5-HT2 functional, [Ca2+]i mobilization)
[3] = 1 hour after single topical ocular instillation of 300 μg
[4] = 3 hours after single topical ocular instillation of 300 μg
[5] = 6 hours after single topical ocular instillation of 300 μg

Which Emax (5-HT2 receptor; A7r5 cells) does the source give for `COc1cc(CC(C)N)c(OC)c2c1CCOC2` (racemic) [Compound A, 2-(5,8-Dimethoxy-isochroman-7-yl)-1-methyl-ethylamine hydrochloride] here?
Its Emax is 55%.

And the EC50 (5-HT2 receptor; [2])?
Its EC50 is 267 nM.

With `COc1cc(CC(C)N)c(OC)c2c1CCOC2.Cl` (single isomer, unassigned; (+)) [Compound C, (+) 2-(5,8-Dimethoxy-isochroman-7-yl)-1-methyl-ethylamine hydrochloride] as the molecule, how does the “Efficacy (Emax, %)” value (5-HT2 receptor; A7r5 cells, hydrochloride) read?
The value was 69%.

And the EC50 (5-HT2 receptor; [2])?
Its EC50 is 43 nM.

With `COc1cc(CC(C)N)c(OC)c2c1CCOC2.Cl` (single isomer, unassigned; (-)) [Compound B, (−) 2-(5,8-Dimethoxy-isochroman-7-yl)-1-methyl-ethylamine hydrochloride] as the molecule, how does the “IOP lowering (%)” value [1, 3] read?
Its value is 15.8%.

And the “IOP lowering (mmHg)” value [1, 3]?
Its value is 6.8 mmHg.

And the “IOP lowering (%)” value [1, 4]?
The value was 28.5%.

And the “IOP lowering (mmHg)” value [1, 4]?
The value was 12.5 mmHg.

And the “IOP lowering (%)” value [1, 5]?
Its value is 21.3%.

And the “IOP lowering (mmHg)” value [1, 5]?
The value was 9.6 mmHg.

And the Emax (5-HT2 receptor; A7R5, A7r5 cells)?
The Emax was 55%.

And the EC50 (5-HT2 receptor; [2])?
Its EC50 is 39 nM.

What does the source list for `COc1cc(CC(C)N)c(OC)cc1I` (stereo not drawn) [DOI, reference compound]?
IC50 (brain 5-HT2 receptors): 0.33 nM; Efficacy (Emax, %) (5-HT2 receptor; A7r5 cells): 31%; EC50 (5-HT2 receptor; read-out: EC50, nM (5-HT2 functional, [Ca2+]i mobilization)): 30.2 nM
